Reference: US10392347B2, “2,4-dihydroxy-nicotinamides as APJ agonists” (BRISTOL-MYERS SQUIBB COMPANY, priority 2015, dated 2019)

Molecular target: T1, human APJ receptor (Homo sapiens, UniProt P35414)
T1 construct: expressed in transfected cells
T1 sequence (P35414 1-380): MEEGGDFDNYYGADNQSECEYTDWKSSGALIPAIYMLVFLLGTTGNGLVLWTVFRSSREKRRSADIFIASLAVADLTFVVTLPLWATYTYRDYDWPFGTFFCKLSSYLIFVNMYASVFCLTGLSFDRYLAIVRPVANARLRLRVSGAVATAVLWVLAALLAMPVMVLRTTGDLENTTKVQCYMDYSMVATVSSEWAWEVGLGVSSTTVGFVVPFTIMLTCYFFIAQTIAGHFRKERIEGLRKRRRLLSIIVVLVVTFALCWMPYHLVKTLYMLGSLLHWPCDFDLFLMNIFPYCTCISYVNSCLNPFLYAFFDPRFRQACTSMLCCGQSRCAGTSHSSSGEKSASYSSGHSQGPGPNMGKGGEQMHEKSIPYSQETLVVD
Assay: Intracellular cAMP accumulation assay (APJ hcAMP, HTRF)
Assay type: cell-based
Settings: Table 4; HEK293 cells stably expressing human APJ, forskolin-stimulated cAMP; read-out: Human cAMP EC50
Summary of the method: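 Inhibition of forskolin (2 μM)-stimulated cAMP, with […], was measured after 30 min compound exposure at room temperature in stably transfected HEK293 cells. HTRF ratios were converted to cAMP via standard curve, and EC50 values came from variable-slope sigmoidal concentration-response fitting.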

SMILES	EC50
CCOCc1nc(O)c(C(=O)N2CCN(Cc3cccc(Cl)c3Cl)CC2)c(O)c1-c1c(OC)cccc1OC [Example 104, 3-{4-[(2,3-dichlorophenyl)methyl]piperazine-1-carbonyl}-5-(2,6-dimethoxyphenyl)-6-(ethoxymethyl)pyridine-2,4-diol]	0.01 to 10 nM
CCCCc1nc(O)c(C(=O)N2CCN(C(=O)c3ccc(Cl)cn3)CC2)c(O)c1-c1c(OC)cccc1OC [Example 105, 6-butyl-3-[4-(5-chloropyridine-2-carbonyl)piperazine-1-carbonyl]-5-(2,6-dimethoxyphenyl)pyridine-2,4-diol]	0.01 to 10 nM
CCCCc1nc(O)c(C(=O)N2CCC(Cc3ccccc3C)CC2)c(O)c1-c1c(OC)cccc1OC [Example 106, 6-butyl-5-(2,6-dimethoxyphenyl)-3-{4-[(2-methylphenyl)methyl]piperidine-1-carbonyl}pyridine-2,4-diol]	0.01 to 10 nM
CCCCc1nc(O)c(C(=O)N2CCN(Cc3cccc(C(F)(F)F)c3)CC2)c(O)c1-c1c(OC)cccc1OC [Example 107, 6-butyl-5-(2,6-dimethoxyphenyl)-3-(4-{[3-(trifluoromethyl)phenyl]methyl}piperazine-1-carbonyl)pyridine-2,4-diol]	100 to 300 nM
CCCCc1nc(O)c(C(=O)N2CCN(Cc3cccc(F)c3F)CC2)c(O)c1-c1c(OC)cccc1OC [Example 108, 6-butyl-3-{4-[(2,3-difluorophenyl)methyl]piperazine-1-carbonyl}-5-(2,6-dimethoxyphenyl)pyridine-2,4-diol]	0.01 to 10 nM
CCCCc1nc(O)c(C(=O)N2CCN(CC3CCCCC3)CC2)c(O)c1-c1c(OC)cccc1OC [Example 109, 6-butyl-3-[4-(cyclohexylmethyl)piperazine-1-carbonyl]-5-(2,6-dimethoxyphenyl)pyridine-2,4-diol]	10 to 100 nM
CCCCc1nc(O)c(C(=O)N2CCN(Cc3cccc(F)c3F)CC2)c(O)c1-c1cc(OC)ccc1OC [Example 110, 6-butyl-3-{4-[(2,3-difluorophenyl)methyl]piperazine-1-carbonyl}-5-(2,5-dimethoxyphenyl)pyridine-2,4-diol]	0.01 to 10 nM
CCCCc1nc(O)c(C(=O)N2CCN(CC3CC3)CC2)c(O)c1-c1c(OC)cccc1OC [Example 111]	10 to 100 nM
CCCCc1nc(O)c(C(=O)N2CCN(Cc3cccc(Cl)c3Cl)CC2)c(O)c1-c1cccc(OC)c1OC [Example 112, 6-butyl-3-{4-[(2,3-dichlorophenyl)methyl]piperazine-1-carbonyl}-5-(2,3-dimethoxyphenyl)pyridine-2,4-diol]	0.01 to 10 nM
CCCCc1nc(O)c(C(=O)N2CCC(Cc3cc(F)ccc3Br)CC2)c(O)c1-c1c(OC)cccc1OC [Example 113, 3-{4-[(2-bromo-5-fluorophenyl)methyl]piperidine-1-carbonyl}-6-butyl-5-(2,6-dimethoxyphenyl)pyridine-2,4-diol]	0.01 to 10 nM
CCOCc1nc(O)c(C(=O)N2CCN(Cc3cccc(F)c3F)CC2)c(O)c1-c1c(OC)cccc1OC [Example 114, 3-{4-[(2,3-difluorophenyl)methyl]piperazine-1-carbonyl}-5-(2,6-dimethoxyphenyl)-6-(ethoxymethyl)pyridine-2,4-diol]	0.01 to 10 nM
CCCCc1nc(O)c(C(=O)N2CC(Oc3ncccc3F)C2)c(O)c1-c1c(OC)cccc1OC [Example 115, 6-butyl-5-(2,6-dimethoxyphenyl)-3-{3-[(3-fluoropyridin-2-yl)oxy]azetidine-1-carbonyl}pyridine-2,4-diol]	0.01 to 10 nM
CCCCc1nc(O)c(C(=O)N2CC(OCc3cccc(F)c3F)C2)c(O)c1-c1c(OC)cccc1OC [Example 116, 6-butyl-3-{3-[(2,3-difluorophenyl)methoxy]azetidine-1-carbonyl}-5-(2,6-dimethoxyphenyl)pyridine-2,4-diol]	0.01 to 10 nM
CCCCc1nc(O)c(C(=O)N(CCC)CCc2ccccc2F)c(O)c1-c1c(OC)cccc1OC [Example 117, 6-butyl-5-(2,6-dimethoxyphenyl)-N-[2-(2-fluorophenyl)ethyl]-2,4-dihydroxy-N-propylpyridine-3-carboxamide]	100 to 300 nM
CCCCc1nc(O)c(C(=O)N2CC(NS(=O)(=O)c3cccc(F)c3F)C2)c(O)c1-c1c(OC)cccc1OC [Example 118, N-{1-[6-butyl-5-(2,6-dimethoxyphenyl)-2,4-dihydroxypyridine-3-carbonyl]azetidin-3-yl}-2,3-difluorobenzene-1-sulfonamide]	0.01 to 10 nM
CCCCc1nc(O)c(C(=O)N2CCN(C(=O)c3cccc(F)c3F)CC2)c(O)c1-c1c(OC)cccc1OC [Example 119, 6-butyl-3-[4-(2,3-difluorobenzoyl)piperazine-1-carbonyl]-5-(2,6-dimethoxyphenyl)pyridine-2,4-diol]	0.01 to 10 nM
CCCCc1nc(O)c(C(=O)N2CCN(Cc3ncccc3F)CC2)c(O)c1-c1c(OC)cccc1OC [Example 120, 6-butyl-5-(2,6-dimethoxyphenyl)-3-{4-[(3-fluoropyridin-2-yl)methyl]piperazine-1-carbonyl}pyridine-2,4-diol]	0.01 to 10 nM
CCCCc1nc(O)c(C(=O)N2CCN(Cc3cccc(C)c3F)CC2)c(O)c1-c1c(OC)cccc1OC [Example 121, 6-butyl-5-(2,6-dimethoxyphenyl)-3-{4-[(2-fluoro-3-methylphenyl)methyl]piperazine-1-carbonyl}pyridine-2,4-diol]	0.01 to 10 nM
CCCCc1nc(O)c(C(=O)N2CCN(Cc3cc(F)ccc3F)CC2)c(O)c1-c1c(OC)cccc1OC [Example 122, 6-butyl-3-{4-[(2,5-difluorophenyl)methyl]piperazine-1-carbonyl}-5-(2,6-dimethoxyphenyl)pyridine-2,4-diol]	0.01 to 10 nM
CCCCc1nc(O)c(C(=O)N2CCN(Cc3cccc(Cl)n3)CC2)c(O)c1-c1c(OC)cccc1OC [Example 123, 6-butyl-3-{4-[(6-chloropyridin-2-yl)methyl]piperazine-1-carbonyl}-5-(2,6-dimethoxyphenyl)pyridine-2,4-diol]	0.01 to 10 nM

Same assay, conditions: Table 5; HEK293 cells stably expressing human APJ, forskolin-stimulated cAMP; read-out: Human cAMP EC50

SMILES	EC50
CCOCc1nc(O)c(C(=O)N2CCC(c3cccc(F)c3)C2)c(O)c1-c1c(OC)cccc1OC (stereo not shown) [Example 124, 5-(2,6-dimethoxyphenyl)-6-(ethoxymethyl)-3-[3-(3-fluorophenyl)pyrrolidine-1-carbonyl]pyridine-2,4-diol]	0.01 to 10 nM
COc1cccc(OC)c1-c1c(C2CCCC2)nc(O)c(C(=O)N2CCC(c3cccc(F)c3)C2)c1O (stereo not shown) [Example 125, 6-cyclopentyl-5-(2,6-dimethoxyphenyl)-3-[3-(3-fluorophenyl)pyrrolidine-1-carbonyl]pyridine-2,4-diol]	10 to 100 nM
CCOCc1nc(O)c(C(=O)N2CCC(c3ccccc3F)C2)c(O)c1-c1c(OC)cccc1OC (stereo not shown) [Example 126, 5-(2,6-dimethoxyphenyl)-6-(ethoxymethyl)-3-[3-(2-fluorophenyl)pyrrolidine-1-carbonyl]pyridine-2,4-diol]	0.01 to 10 nM
CCOCc1nc(O)c(C(=O)N2CCC(c3ccccc3F)C2)c(O)c1-c1c(OC)cccc1OC (stereo not shown) [Example 127, 5-(2,6-dimethoxyphenyl)-6-(ethoxymethyl)-3-[3-(2-fluorophenyl)pyrrolidine-1-carbonyl]pyridine-2,4-diol]	0.01 to 10 nM
COc1cccc(-c2c(-c3csc(C)n3)nc(O)c(C(=O)N3CCC(c4ncc(F)cc4F)C3)c2O)c1 (stereo not shown) [Example 128, 3-[3-(3,5-difluoropyridin-2-yl)pyrrolidine-1-carbonyl]-5-(3-methoxyphenyl)-6-(2-methyl-1,3-thiazol-4-yl)pyridine-2,4-diol]	10 to 100 nM
